The values below come from US20250312469A1 (CANGET BIOTEKPHARMA, priority 2024, published 2025).

For data set [1], the system named is SK-ES-1 OS tumors. In words: SK-ES-1 osteosarcoma xenograft. Type of data set: in vivo, SCID mice. Particulars: weekly×4.
For data set [2], the system named is CRPC LAPC9 tumors. In words: LAPC9 CRPC tumor model. Type of data set: in vivo, SCID mice. The conditions noted are these: 10 mg/kg i.p., 6 times over 2 weeks.
A short description of data set [3]: in vitro. The conditions noted are these: both, human, whole blood (sodium heparin), pH 7.4.
Data set [4] has as its target DDX5 (Homo sapiens, UniProt P17844). In words: Isothermal titration calorimetry (ITC), Flag-DDX5. Type of data set: binding. The conditions noted are these: ITC, 25° C., 1×PBS pH7.4 with 8% DMSO.

Chain of DDX5 (P17844 whole entry): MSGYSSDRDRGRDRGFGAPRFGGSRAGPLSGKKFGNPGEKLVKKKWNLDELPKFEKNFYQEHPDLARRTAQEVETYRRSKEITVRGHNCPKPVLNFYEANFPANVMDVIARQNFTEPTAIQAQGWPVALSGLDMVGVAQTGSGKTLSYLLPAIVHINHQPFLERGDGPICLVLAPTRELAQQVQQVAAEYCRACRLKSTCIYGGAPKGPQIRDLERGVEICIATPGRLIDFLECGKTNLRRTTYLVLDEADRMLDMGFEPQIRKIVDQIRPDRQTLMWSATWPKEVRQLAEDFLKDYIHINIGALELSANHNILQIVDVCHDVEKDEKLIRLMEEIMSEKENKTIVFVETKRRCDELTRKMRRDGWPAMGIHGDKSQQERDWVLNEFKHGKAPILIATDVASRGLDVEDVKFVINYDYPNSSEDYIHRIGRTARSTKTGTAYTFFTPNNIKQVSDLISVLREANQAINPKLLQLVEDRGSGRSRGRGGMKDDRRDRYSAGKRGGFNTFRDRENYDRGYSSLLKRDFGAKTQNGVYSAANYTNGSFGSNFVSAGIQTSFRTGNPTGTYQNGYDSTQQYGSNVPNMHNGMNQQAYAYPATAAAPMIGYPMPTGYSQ

Turning to `COc1cccc2c1C(=O)c1c(O)c3c(c(O)c1C2=O)C[C@@](O)(C(=O)CO)C[C@@H]3O[C@H]1C[C@H](N)[C@H](O)[C@H](C)O1` [DOX, doxorubicin, reference compound], the antitumor efficacy result in data set [1] is recorded as “not seen”.

In the case of `CNC(=O)c1ccc(N2C(=S)N(c3ccc(C#N)c(C(F)(F)F)c3)C(=O)C2(C)C)cc1F` [Enza, enzalutamide, reference compound], the antitumor efficacy entry in data set [2] is recorded as “not sensitive to Enza”.

Take `NS(=O)(=O)c1cc(C2(O)NC(=O)c3ccccc32)ccc1Cl` (stereo not shown) [chlorthalidone]: in data set [3], the blood plasma ratio at 60 min, 1 μM stood at 8.73.

`CC[C@@]1(O)C(=O)OCc2c1cc1n(c2=O)Cc2cc3c(CN(C)C)c(O)ccc3nc2-1` [topotecan, reference compound] came in with a Kd in data set [4] of no less than 1.08 µM.

By Kd is commonly meant the equilibrium constant for the complex coming apart. Lower therefore signals higher affinity.
